“Also recorded” adds a separate entry of the source. Like-named read-outs stand apart in the source and are kept apart here. Blank lines part the entries; values can stand above or below the compound they belong to.
Legend:
SIRT2 [1] = molecular target: T1, SIRT2 (Homo sapiens, UniProt Q8IXJ6); assay: SIRT2 enzymatic assay with fluorogenic p53 peptide substrate RHKK(Ac)-AMC; assay type: biochemical; conditions: for increase in potency over 9a: SIRT2 IC50 ratio to 9a
T1 sequence (Q8IXJ6 1-389): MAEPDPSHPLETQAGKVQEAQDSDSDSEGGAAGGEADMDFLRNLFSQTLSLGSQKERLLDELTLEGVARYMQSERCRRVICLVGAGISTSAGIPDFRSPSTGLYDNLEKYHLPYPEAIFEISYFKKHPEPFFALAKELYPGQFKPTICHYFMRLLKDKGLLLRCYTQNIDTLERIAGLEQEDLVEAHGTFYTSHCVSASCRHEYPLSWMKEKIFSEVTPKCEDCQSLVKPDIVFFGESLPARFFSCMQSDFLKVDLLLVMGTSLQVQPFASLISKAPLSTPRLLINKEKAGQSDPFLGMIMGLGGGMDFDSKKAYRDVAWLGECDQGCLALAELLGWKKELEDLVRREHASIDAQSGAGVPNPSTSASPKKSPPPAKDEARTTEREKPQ
Experimental: The newly synthesized analogues, based on our previously validated thienopyrimidinone scaffold, were designed to contain a variety of N-3 (columns a–i, Table 1) and N-7′ substituents (rows 9–49, Table 1), with the aim to conduct a relatively broad survey of the SAR features of this scaffold. These compounds were all synthesized according to the previously disclosed method[81] (Schemes SS1 and SS2, Supporting Information) and assessed as racemates. SIRT2 inhibitory activity was assessed using a validated SIRT2 assay, based on a fluorogenic peptide substrate derived from p53 (see Experimental Section). For this assay, suramin was used as a positive control and gave similar inhibitory activity to that observed previously.[83] A vehicle (DMSO) was used as the negative control. SIRT2 inhibitory activity was measured at two compound concentrations, 1 μM (n = 2) and 10 μM (n = 2) for all compounds.
Enzymatic assays were performed by Reaction Biology Corporation (http://www.reactionbiology.com) as described before.[81] In vitro SIRT assays were conducted by using the fluorogenic peptide substrate from p53 residues 379–382 RHKK(Ac)-AMC for SIRT1–3. The assay buffer contained 50 mM Tris-HCl, pH 8.0, 137 mM NaCl, 2.7 mM KCl, 1 mM MgCl2, 1 mg mL^–1 bovine serum albumin, and 1% DMSO. The protocol involved a two-step procedure. The fluorogenic substrate with the acetylated lysine side chain was incubated with the SIRT enzyme to produce the deacetylated products, which were then digested in the second step by the addition of a developer to produce the fluorescent signal proportional to the amount of deacetylated substrates. Deacetylation of substrate peptides was used as a read out of the SIRT activity. All compounds were freshly prepared as 10 mM stock solutions in DMSO and serially diluted to the indicated concentration in the reaction. All test compounds were preincubated with the human SIRTs for about 10 min before commencing the reaction through the addition of substrate. Fluorescence was read (λex, 360 nm; λem, 460 nm) using an EnVision Multilabel Plate Reader (PerkinElmer). The percentages of enzyme activity (relative to DMSO controls) and IC50 values were calculated using the GraphPad Prism 4 program based on a sigmoidal dose–response equation. The number of replicates is stated in the corresponding text.

SIRT3 [2] = molecular target: T2, SIRT3 (Homo sapiens, UniProt Q9NTG7); assay: SIRT3 enzymatic assay with fluorogenic p53 peptide substrate RHKK(Ac)-AMC; assay type: biochemical; conditions: Table 3
T2 sequence (Q9NTG7 1-399): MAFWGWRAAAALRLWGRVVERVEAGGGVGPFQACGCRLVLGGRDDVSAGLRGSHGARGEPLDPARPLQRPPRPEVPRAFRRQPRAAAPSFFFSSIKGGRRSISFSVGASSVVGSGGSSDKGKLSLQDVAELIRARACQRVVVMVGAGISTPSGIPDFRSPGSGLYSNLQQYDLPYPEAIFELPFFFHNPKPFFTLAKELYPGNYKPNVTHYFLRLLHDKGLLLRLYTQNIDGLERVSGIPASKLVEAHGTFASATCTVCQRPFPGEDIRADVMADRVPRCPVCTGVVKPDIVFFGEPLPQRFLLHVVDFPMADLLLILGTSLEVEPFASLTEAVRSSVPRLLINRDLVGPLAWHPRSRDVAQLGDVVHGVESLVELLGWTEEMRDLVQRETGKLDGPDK

SIRT1 [3] = molecular target: T3, SIRT1 (Homo sapiens, UniProt Q96EB6); assay: SIRT1 enzymatic assay with fluorogenic p53 peptide substrate RHKK(Ac)-AMC; assay type: biochemical; conditions: Table 3
T3 sequence (Q96EB6 1-747): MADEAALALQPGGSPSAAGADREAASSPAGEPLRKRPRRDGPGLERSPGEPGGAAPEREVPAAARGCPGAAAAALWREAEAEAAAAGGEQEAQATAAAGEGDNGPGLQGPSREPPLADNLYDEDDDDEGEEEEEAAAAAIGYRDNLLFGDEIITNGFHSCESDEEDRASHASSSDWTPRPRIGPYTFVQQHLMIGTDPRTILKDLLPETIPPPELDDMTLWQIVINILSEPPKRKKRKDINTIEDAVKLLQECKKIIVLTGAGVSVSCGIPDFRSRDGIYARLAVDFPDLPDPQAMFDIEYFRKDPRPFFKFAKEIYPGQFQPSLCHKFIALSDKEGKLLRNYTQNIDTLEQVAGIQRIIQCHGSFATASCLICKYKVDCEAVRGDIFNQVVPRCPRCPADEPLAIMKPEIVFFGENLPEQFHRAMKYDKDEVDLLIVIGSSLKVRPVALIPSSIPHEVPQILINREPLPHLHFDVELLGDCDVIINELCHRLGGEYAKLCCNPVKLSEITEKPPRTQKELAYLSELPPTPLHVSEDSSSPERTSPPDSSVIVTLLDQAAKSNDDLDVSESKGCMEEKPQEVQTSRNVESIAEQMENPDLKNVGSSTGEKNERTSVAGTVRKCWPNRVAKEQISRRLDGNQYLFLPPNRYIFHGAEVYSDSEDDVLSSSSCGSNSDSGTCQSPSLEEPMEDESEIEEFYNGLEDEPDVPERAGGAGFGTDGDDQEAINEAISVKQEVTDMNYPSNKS

[4] = tested on: acetylated (lysine-40) α-tubulin in MCF-7 cells; assay: Tubulin acetylation assay, Western blot in MCF-7 cells with TSA; conditions: 0-50 μM for 24 h with 50 nM TSA, N = 3
SIRT1 [5] = conditions: Figure 1, cited from earlier work; for IC50: differing in vitro assays and conditions
SIRT2 [6] = tested on: SIRT2; design: method as in PMID 15780941, PMID 26982234, PMID 25275824, PMID 11483616, PMID 16618762; conditions: Figure 1; differing in vitro assays and conditions; cited from earlier work
SIRT3 [7] = conditions: Figure 1, cited from earlier work
SIRT6 = tested on: SIRT6; design: method as in PMID 25672491; conditions: Figure 1; cited from earlier work
[8] = supplement CSV, SIRT2, 10uM, read-out: Inhibition@10uM

- SIRT2 inhibitory activity (in words) (SIRT2 [1]): inactive
- SIRT2 percentage inhibition (at 10 μM) (SIRT2 [1]; Table 2 middle value, 10 μM compound): 25%
- Inhibition@10uM (SIRT2 [1]; supplement CSV, SIRT2, 10uM): 24.87
Compound: 6-(2-Aminoethyl)-3-((2-methoxynaphthalen-1-yl) methyl)-5-methylthieno [2,3-d] pyrimidin-4(3H)-one [56a]

- inhibition at 10 µM (SIRT2 [1]; 10 μM compound, n = 2, read-out: SIRT2 percentage inhibition (at 10 μM)): -6.5%
- inhibition at 10 µM (SIRT2 [1]; [8]): -6.5%
Compound: COc1ccc(Cn2cnc3sc4c(c3c2=O)CCC(NCc2cccc(Cl)c2)C4)c2ccccc12 (stereo not shown) [12c]

- SIRT2 selectivity over SIRT3 (SIRT3 [2]): more than 100 fold
- SIRT2/SIRT3 selectivity (SIRT3 [2]; ratio of IC50 values): >256
- SIRT2 selectivity over SIRT1 (SIRT1 [3]): more than 100 fold
Compound: N#Cc1ccc(CNC2CCc3c(sc4ncn(Cc5cccc6cccnc56)c(=O)c34)C2)cc1 (stereo not shown) [15e, 4-(((4-Oxo-3-(quinolin-8-ylmethyl)-3,4,5,6,7,8-hexahydrobenzo[4,5]thieno[2,3-d]pyrimidin-7-yl)amino)methyl)benzonitrile]

- increase in potency over 9a (SIRT2 [1]): 9 fold
Compound: COc1ccccc1CNC1CCc2c(sc3ncn(Cc4c(OC)ccc5ccccc45)c(=O)c23)C1 (stereo not shown) [16a]

- increase in potency over 9a (SIRT2 [1]): 32 fold
Compound: COc1ccc(CNC2CCc3c(sc4ncn(Cc5c(OC)ccc6ccccc56)c(=O)c34)C2)cc1 (stereo not shown) [18a]

- inhibition at 10 µM (SIRT2 [1]; [8]): 32.6%
Compound: O=c1c2c3c(sc2ncn1Cc1ccccc1)CC(NCc1ccncc1)CC3 (stereo not shown) [20g]

- inhibition at 10 µM (SIRT2 [1]; [8]): 57.6%
Compound: COc1cccc(Cn2cnc3sc4c(c3c2=O)CCC(NCc2ccncc2)C4)c1 (stereo not shown) [20h]

- inhibition at 10 µM (SIRT2 [1]; [8]): 18.2%
Compound: COc1cccc(Cn2cnc3sc4c(c3c2=O)CCC(NCc2ccccn2)C4)c1 (stereo not shown) [21h]

- inhibition at 10 µM (SIRT2 [1]; [8]): 17.5%
Compound: O=c1c2c3c(sc2ncn1Cc1ccccc1)CC(NCc1cncnc1)CC3 (stereo not shown) [22g]

- inhibition at 10 µM (SIRT2 [1]; [8]): 18.3%
Compound: COc1cccc(Cn2cnc3sc4c(c3c2=O)CCC(NCc2cncnc2)C4)c1 (stereo not shown) [22h]

- inhibition at 10 µM (SIRT2 [1]; [8]): 87.9%
Compound: COc1ccc(CNC2CCc3c(sc4ncn(Cc5c(OC)ccc6ccccc56)c(=O)c34)C2)cn1 (stereo not shown) [23a]

- SIRT2 inhibitory activity (in words) (SIRT2 [1]): lacking in vitro activity against SIRT2
Compound: O=c1c2c3c(sc2ncn1Cc1ccccc1)CC(NCC1CCCO1)CC3 (stereo not shown) [25g]
- effect on α-tubulin acetylation level [4]: no effect on tubulin acetylation levels; also recorded: showed no effect on the acetylation of α-tubulin

- inhibition at 10 µM (SIRT2 [1]; [8]): 3.44%
Compound: COc1cccc(Cn2cnc3sc4c(c3c2=O)CCC(NCC2CCCO2)C4)c1 (stereo not shown) [25h]

- inhibition at 10 µM (SIRT2 [1]; [8]): 14.4%
Compound: COc1cccc(Cn2cnc3sc4c(c3c2=O)CCC(NCc2c(C)nn(C)c2C)C4)c1 (stereo not shown) [27h]

- inhibition at 10 µM (SIRT2 [1]; [8]): 33.4%
Compound: COc1cccc(Cn2cnc3sc4c(c3c2=O)CCC(NCc2ccco2)C4)c1 (stereo not shown) [28h]

- SIRT2 selectivity over SIRT3 (SIRT3 [2]): ~30 fold
- SIRT2 selectivity over SIRT1 (SIRT1 [3]): > 200 fold
Compound: COc1ccc(Cn2cnc3sc4c(c3c2=O)CCC(NCc2c(C)noc2C)C4)c2ccccc12 (stereo not shown) [29c]
- effect on α-tubulin acetylation level [4]: increased levels of α-tubulin acetylation in a dose dependent manner; also recorded: increased the α-tubulin acetylation level at 10 μM and retained consistent to 50 μM

- inhibition at 10 µM (SIRT2 [1]; [8]): 26.7%
Compound: O=c1c2c3c(sc2ncn1Cc1ccccc1)CC(NCCc1cccnc1)CC3 (stereo not shown) [31g]

- inhibition at 10 µM (SIRT2 [1]; [8]): 40.5%
Compound: COc1cccc(Cn2cnc3sc4c(c3c2=O)CCC(NCCc2cccnc2)C4)c1 (stereo not shown) [31h]

- inhibition at 10 µM (SIRT2 [1]; [8]): 22.3%
Compound: COc1ccccc1NC1CCc2c(sc3ncn(Cc4cccc5ccccc45)c(=O)c23)C1 (stereo not shown) [35b]

- inhibition at 10 µM (SIRT2 [1]; [8]): 26.4%
Compound: COc1ccccc1NC1CCc2c(sc3ncn(Cc4cccc(-c5ccccc5)c4)c(=O)c23)C1 (stereo not shown) [35i]

- inhibition at 10 µM (SIRT2 [1]; [8]): 29.6%
Compound: COc1cccc(NC2CCc3c(sc4ncn(Cc5cccc(-c6ccccc6)c5)c(=O)c34)C2)c1 (stereo not shown) [37i]

- inhibition at 10 µM (SIRT2 [1]; [8]): 30.5%
Compound: O=c1c2c3c(sc2ncn1Cc1cccc2cccnc12)CC(NC1CCCC1)CC3 (stereo not shown) [41e]

- inhibition at 10 µM (SIRT2 [1]; [8]): 21.6%
Compound: O=c1c2c3c(sc2ncn1Cc1cccc(-c2ccccc2)c1)CC(NC1CCCc2ccccc21)CC3 (stereo not shown) [46i]

- SIRT2 inhibitory activity (in words) (SIRT2 [1]): inactive
Compound: COc1ccc2ccccc2c1Cn1cnc2sc(CCN(C)C)c(C)c2c1=O [57a]

Compound: N#C/C(=C\c1ccc(-c2cc(Cl)ccc2Cl)o1)C(=O)Nc1cccc2ncccc12 [AGK2]
- IC50 (SIRT1 [5]): > 50000 nM
- effect on α-tubulin acetylation level [4]: showed significant increase of α-tubulin acetylation at 10 to 50 μM

Compound: O=c1[nH]c(=S)[nH]c(-c2ccccc2)c1Cc1c(O)ccc2ccccc12 [Cambinol, cambinol]
- IC50 (SIRT1 [5]): 56000 nM
- IC50 (SIRT2 [6]): 51000 nM

Compound: NC(=O)c1cccnc1 [Nicotinamide, nicotinamide]
- IC50 (SIRT1 [5]): 85000 nM

Compound: O=C(Nc1cnccc1Br)c1cccc(-c2ccc3ccccc3c2)c1 [compound 4]
- IC50 (SIRT3 [7]; differing in vitro assays): > 100000 nM
- IC50 (SIRT1 [5]): > 100000 nM
- IC50 (SIRT2 [6]): 600 nM

Compound: CSc1ccc(CSc2cccc(C(=O)Nc3ccc(C#N)cc3)c2)cc1 [compound 5]
- SIRT3 inhibition @ 10 μM (SIRT3 [7]; 10 μM): no inhibition
- SIRT1 inhibition @ 10 μM (SIRT1 [5]; 10 μM): 3%
- IC50 (SIRT2 [6]): 2400 nM

Compound: CC1(C)Cc2c(-c3ccc(Cl)cc3)n[nH]c2C(C(N)=O)C1 (stereo not shown) [compound 7]
- IC50 (SIRT1 [5]): 800 nM
- IC50 (SIRT2 [6]): 1700 nM

Compound: Cc1cc(C)nc(SCC(=O)Nc2ncc(Cc3cccc4ccccc34)s2)n1 [compound 8, SirReal2]
- IC50 (SIRT1 [5]): > 100000 nM
- IC50 (SIRT6): > 200000 nM
